Measured values reported in patent publication US8173636B2, “Hydroxylthienoquinolones and related compounds as anti-infective agents” (Achillion Pharmaceuticals, Inc., priority 2009, dated 2012).
Values after ≈ are worked out from the molar mass of the structure shown.

Columns and labels:
[1] = system: S. aureus ATCC 29213; experiment: Minimum inhibitory concentration (MIC) assay, broth microdilution, MSSA; type: cell-based; details: Staphylococcus aureus, Table I
Protocol: (§1) The antimicrobial activity of the compounds of the invention may be evaluated by a number of methods, including the following visual minimum inhibitory concentration (MIC) assay. This assay determines the minimum concentration of compound required to inhibit growth of a bacterial strain.
(§2) Whole-cell antibacterial activity is determined by broth microdilution using conditions recommended by the NCCLS (see National Committee for Clinical Laboratory Standards. 2001. Performance standards for antimicrobial susceptibility testing: 11th informational supplement. Vol. 21, no. 1, M100-S11. National Committee for Clinical Laboratory Standards, Wayne, Pa.). Test compounds are dissolved in DMSO and diluted 1:50 in Mueller-Hinton II broth (Becton-Dickinson) to produce a 256 μg/ml stock solution. In a 96-well microtiter plate, the compound solution is serially two-fold diluted in Mueller-Hinton II broth. After the compounds are diluted, a 50 μl aliquot of the test organism (˜1×10^6 cfu/mL) is added to each well of the microtiter plate. The final test concentrations ranges from 0.125-128 μg/mL. Inoculated plates are incubated in ambient air at 37° C. for 18 to 24 hours. The organisms selected for testing included laboratory strains S. aureus ATCC 29213 and E. coli ATCC 25922 (strains purchased from American Type Culture Collection, Manassas, Va.) m, S. aureus FQR700699, and Paeruginosa 27853. The minimum inhibitory concentration (MIC) is determined as the lowest concentration of compound that inhibited visible growth of the test organism.

[2] = system: fluoroquinolone-resistant S. aureus ATCC 700699; experiment: Minimum inhibitory concentration (MIC) assay, broth microdilution, MRSA; type: cell-based; details: Staphylococcus aureus; fluoroquinolone-resistant S. aureus ATCC 700699; Table I; read-out: MRSA MIC
Protocol: as §1, §2

SMILES	MIC [1] [µg/mL]	MIC [2] [µg/mL]
COc1c(N2CCN(CC#N)CC2)c(F)cc2c(=O)c3c(O)c(C#N)sc3n(C3CC3)c12 [Cmp 55, 7-(4-(cyanomethyl)piperazin-1-yl)-9-cyclopropyl-6-fluoro-3-hydroxyl-8-methoxy-4-oxo-4,9-dihydrothieno [2,3-b]quinoline-2-carbonitrile]	0.06 (≈ 0.132 µM)	0.5 (≈ 1.1 µM)
COc1c(N2CCCC(c3ncn[nH]3)C2)c(F)cc2c(=O)c3c(n(C4CC4)c12)SC(C#N)C3=O (stereo not drawn) [Cmp 53, 7-(3-(1H-1,2,4-triazol-5-yl)piperidin-1-yl)-9-cyclopropyl-6-fluoro-8-methoxy-4-dioxo-2,3,4,9-tetrahydrothieno [2,3-b]quinoline-2-carbonitrile]	0.13 (≈ 0.271 µM)	2 (≈ 4.16 µM)
COc1c(N2CCNC(C(N)=O)C2)c(F)cc2c(=O)c3c(n(C4CC4)c12)SC(C#N)C3=O (stereo not drawn) [Cmp 52, 4-(2-cyano-9-cyclopropyl-6-fluoro-8-methoxy-3,4-dioxo-2,3,4,9-tetrahydrothieno[2,3-b]quinolin-7-yl) piperazine-2-carboxamide]	0.25 (≈ 0.546 µM)	2 (≈ 4.37 µM)
COc1c(N2CC[C@@H]([C@H](C)N(C)C)C2)c(F)cc2c(=O)c3c(O)c(C#N)sc3n(C3CC3)c12 [Cmp 33, 9-cyclopropyl-7-((R)-3-((S)-1-(dimethylamino)ethyl)pyrrolidin-1-yl)-6-fluoro-3-hydroxyl-8-methoxy-4-oxo-4,9-dihydrothieno [2,3-b]quinoline-2-carbonitrile]	0.06 (≈ 0.128 µM)	0.5 (≈ 1.06 µM)
COc1c(N2CCC(N)CC2)c(F)cc2c(=O)c3c(O)c(C#N)sc3n(C3CC3)c12 [Cmp 29, 7-(4-aminopiperidin-1-yl)-9-cyclopropyl-6-fluoro-3-hydroxyl-8-methoxy-4-oxo-4,9-dihydrothieno[2,3-b]quinoline-2-carbonitrile]	0.03 (≈ 0.07 µM)	0.5 (≈ 1.17 µM)
CO/N=C1\CN(c2c(F)cc3c(=O)c4c(O)c(C#N)sc4n(C4CC4)c3c2OC)CC1CN (stereo not drawn) [Cmp 39, (Z)-7-(3-(aminomethyl)-4-(methoxyimino)pyrrolidin-1-yl)-9-cyclopropyl-6-fluoro-3-hydroxyl-8-methoxy-4-oxo-4,9-dihydrothieno[2,3-b]quinoline-2-carbonitrile]	0.13 (≈ 0.276 µM)	1 (≈ 2.12 µM)
CCNC(C)(C)[C@@H]1CCN(c2c(F)cc3c(=O)c4c(O)c(C#N)sc4n(C4CC4)c3c2OC)C1 [Cmp 35, (R)-9-cyclopropyl-7-(3-(2-(ethylamino)propan-2-yl)pyrrolidin-1-yl)-6-fluoro-3-hydroxyl-8-methoxy-4-oxo-4,9-dihydrothieno [2,3-b]quinoline-2-carbonitrile]	0.06 (≈ 0.124 µM)	0.5 (≈ 1.03 µM)
COc1c(N2CC[C@@H](C(C)(C)N(C)C)C2)c(F)cc2c(=O)c3c(O)c(C#N)sc3n(C3CC3)c12 [Cmp 36, (R)-9-cyclopropyl-7-(3-(2-(dimethylamino)propan-2-yl)pyrrolidin-1-yl)-6-fluoro-3-hydroxyl-8-methoxy-4-oxo-4,9-dihydrothieno[2,3-b]quinoline-2-carbonitrile]	0.25 (≈ 0.516 µM)	2 (≈ 4.13 µM)
COc1c(N2CC[C@@H](C(C)(C)N)C2)c(F)cc2c(=O)c3c(O)c(C(N)=O)sc3n(C3CC3)c12 [Cmp 32, (R)-7-(3-(2-aminopropan-2-yl)pyrrolidin-1-yl)-9-cyclopropyl-6-fluoro-3-hydroxyl-8-methoxy-4-oxo-4,9-dihydrothieno [2,3-b]quinoline-2-carboxamide]	0.13 (≈ 0.274 µM)	0.5 (≈ 1.05 µM)
COc1c(N2CCCC(=C(F)CN)C2)c(F)cc2c(=O)c3c(O)c(C(C)=O)sc3n(C3CC3)c12 [Cmp 66, 2-acetyl-7-(3-(2-amino-1-fluoroethylidene)piperidin-1-yl)-9-cycloprop-6-fluoro-3-hydroxyl-8-methoxythieno[2,3-b] quinolin-4(9H)-one]	0.25 (≈ 0.511 µM)	0.5 (≈ 1.02 µM)
CNC(C)(C)[C@@H]1CCN(c2c(F)cc3c(=O)c4c(O)c(C#N)sc4n(C4CC4)c3c2OC)C1 [Cmp 34, (R)-9-cyclopropyl-6-fluoro-3-hydroxyl-8-methoxy-7-(3-(2-(methylamino)propan-2-yl)pyrrolidin-1-yl)-4-oxo-4,9-dihydrothieno[2,3-b]quinoline-2-carbonitrile]	0.06 (≈ 0.128 µM)	0.5 (≈ 1.06 µM)
COc1c(N2CC[C@@H](C(C)(C)N)C2)ccc2c(=O)c3c(O)c(C#N)sc3n(C3CC3)c12 [Cmp 2, (R)-7-(3-(2-aminopropan-2-yl)pyrrolidin-1-yl)-9-cyclopropyl-3-hydroxyl-8-methoxy-4-oxo-4,9-dihydrothieno[2,3-b]quinoline-2-carbonitrile]	0.06 (≈ 0.137 µM)	0.42 (≈ 0.958 µM)
N#Cc1sc2c(c1O)c(=O)c1cc(F)c(N3CCNCC3)c(OC(F)F)c1n2C1CC1 [Cmp 3, 9-cyclopropyl-8-(difluoromethoxy)-6-fluoro-3-hydroxyl-4-oxo-7-(piperazin-1-yl)-4,9-dihydrothieno[2,3-b]quinoline-2-carbonitrile]	0.25 (≈ 0.555 µM)	4 (≈ 8.88 µM)
COc1c(N2C[C@H]3CNC[C@H]3C2)c(F)cc2c(=O)c3c(O)c(C#N)sc3n(C3CC3)c12 [Cmp 42, 9-cyclopropyl-6-fluoro-7-((3aR,6aS)-hexahydropyrrolo [3,4-c]pyrrol-2(1H)-yl)-3-hydroxyl-8-methoxy-4-oxo-4,9-dihydrothieno[2,3-b]quinoline-2-carbonitrile]	0.25 (≈ 0.568 µM)	1 (≈ 2.27 µM)
COc1c(N2CC[C@@H]([C@H](C)N)C2)c(F)cc2c(=O)c3c(O)c(C#N)sc3n(C3CC3)c12 [Cmp 11, 7-((R)-3-((S)-1-aminoethyl)pyrrolidin-1-yl)-9-cyclopropyl-6-fluoro-3-hydroxyl-8-methoxy-4-oxo-4,9-dihydrothieno[2,3-b] quinoline-2-carbonitrile]	0.02 (≈ 0.0452 µM)	0.094 (≈ 0.212 µM)
COc1c(N2CC[C@@H](c3ncn[nH]3)C2)c(F)cc2c(=O)c3c(n(C4CC4)c12)SC(C#N)C3=O (stereo partly drawn) [Cmp 44, 7-((R)-3-(1H-1,2,4-triazol-5-yl)pyrrolidin-1-yl)-9-cyclopropyl-6-fluoro-8-methoxy-3,4-dioxo-2,3,4,9-tetrahydrothieno [2,3-b]quinoline-2-carbonitrile]	0.02 (≈ 0.0429 µM)	0.13 (≈ 0.279 µM)
COc1c(N2CCC(C(F)(F)F)CC2)c(F)cc2c(=O)c3c(n(C4CC4)c12)SC(C#N)C3=O (stereo not drawn) [Cmp 43, 9-cyclopropyl-6-fluoro-8-methoxy-3,4-dioxo-7-(4-(trifluoromethyl)piperidin-1-yl)-2,3,4,9-tetrahydrothieno [2,3-b]quinoline-2-carbonitrile]	1 (≈ 2.08 µM)	8 (≈ 16.6 µM)
COc1c(N2CCNCC2)c(F)cc2c(=O)c3c(O)csc3n(C3CC3)c12 [Cmp 8, 9-cyclopropyl-6-fluoro-3-hydroxyl-8-methoxy-7-(piperazin-1-yl)thieno[2,3-b]quinolin-4(9H)-one]	32 (≈ 82.2 µM)	> 64
COc1c(N2C[C@@H]3CCCN[C@@H]3C2)c(F)cc2c(=O)c3c(O)c(C#N)sc3n(C3CC3)c12 [Cmp 38, 9-cyclopropyl-6-fluoro-3-hydroxyl-8-methoxy-4-oxo-7-((4aS,7aS)-tetrahydro-1H-pyrrolo[3,4-b]pyridin-6(2H,7H,7aH)-yl)-4,9-dihydrothieno[2,3-b]quinoline-2-carbonitrile]	0.5 (≈ 1.1 µM)	8 (≈ 17.6 µM)
COc1c(N2C[C@@H]3CCCN[C@@H]3C2)ccc2c(=O)c3c(O)c(C#N)sc3n(C3CC3)c12 [Cmp 27, 9-cyclopropyl-3-hydroxyl-8-methoxy-4-oxo-7-((4aS,7aS)-tetrahydro-1H-pyrrolo[3,4-b]pyridin-6(2H,7H,7aH)-yl)-4,9-dihydrothieno[2,3-b]quinoline-2-carbonitrile]	0.5 (≈ 1.15 µM)	8 (≈ 18.3 µM)
COc1c(N2CCC(c3ncn[nH]3)CC2)c(F)cc2c(=O)c3c(n(C4CC4)c12)SC(C#N)C3=O (stereo not drawn) [Cmp 48, 7-(4-(1H-1,2,4-triazol-5-yl)piperidin-1-yl)-9-cyclopropyl-6-fluoro-8-methoxy-3,4-dioxo-2,3,4,9-tetrahydrothieno [2,3-b]quinoline-2-carbonitrile]	0.03 (≈ 0.0624 µM)	0.25 (≈ 0.52 µM)
COc1c(-c2cn[nH]c2)c(F)cc2c(=O)c3c(n(C4CC4)c12)SC(C#N)C3=O (stereo not drawn) [Cmp 51, 9-cyclopropyl-6-fluoro-8-methoxy-3,4-dioxo-7-(1H-pyrazol-4-yl)-2,3,4,9-tetrahydrothieno[2,3-b]quinoline-2-carbonitrile]	0.03 (≈ 0.0757 µM)	0.5 (≈ 1.26 µM)
COc1c(N2CC[C@H](O)C2)c(F)cc2c(=O)c3c(O)c(C#N)sc3n(C3CC3)c12 [Cmp 23, (S)-9-cyclopropyl-6-fluoro-3-hydroxyl-7-(3-hydroxyl-pyrrolidin-1-yl)-8-methoxy-4-oxo-4,9-dihydrothieno [2,3-b]quinoline-2-carbonitrile]	0.03 (≈ 0.0722 µM)	0.5 (≈ 1.2 µM)
COc1c(N2CCNCC2)c(F)cc2c(=O)c3c(O)c(S(=O)(=O)c4ccccc4)sc3n(C3CC3)c12 [Cmp 14, 9-cyclopropyl-6-fluoro-3-hydroxyl-8-methoxy-2-(phenylsulfonyl)-methoxy-2-7-(piperazin-1-yl)thieno[2,3-b]quinolin-4(9H)-one]	1 (≈ 1.89 µM)	16 (≈ 30.2 µM)
